Reference: patent US20190365818A1, “GENETICALLY-TAGGED STEM CELL LINES AND METHODS OF USE” (ALLEN INSTITUTE, priority 2017, published 2019)
Entries after “also recorded” stand apart in the source; their conditions may differ.

Experiments:
[1] = tested on: myosin; assay: Relative fluorescence quantification and z-axis intensity profiling: myosin; assay type: cell-based, human; conditions: for myosin organization through the thickness of the cell: z-axis intensity profiling
From the text: (§1) The pipeline was prototyped using a small suite of well-characterized compounds that include brefeldin A, paclitaxel, rapamycin, wortmannin and staurosporine (FIG. 26A). Low-resolution imaging (24× magnification) was used to test a matrix of concentrations and time points for each compound of interest to establish an initial set of conditions for each perturbation. hiPSC colonies were monitored for morphologic changes using transmitted light (FIG. 26B) and an endogenously GFP-tagged structure, such as microtubules (FIG. 26C). After establishing an end point response for several compounds, high-resolution (120× magnification) imaging of multiple cell lines was performed under standardized perturbation parameters, in the presence of dyes to label the nucleus and cell membrane for reference purposes (FIG. 27). […] Cells were treated with the indicated perturbation agent at a pre-selected concentration and time point established in phase I.
Fluorescence quantification of the 3D images were used to analyze drug-induced Golgi reorganization, cytoskeleton reorganization, and cell junction reorganization. To quantify the relative abundance of each structure of interest (e.g. Golgi as presented above), the pixel intensities of the GFP channel (488 nm) were summed across the entire z-stack. For each experiment, the same threshold was used to exclude background intensity noise across the control (DMSO) and experimental (perturbation agent) groups. The data were plotted by averaging z-stack data from a time interval (30-minute) and compared to the control DMSO data. Dunnett's multiple comparison test was used to perform one-way ANOVA between the different time intervals against the control group.

[2] = tested on: ZO-1; assay: Z-axis intensity profiling of 3D images: cell junction reorganization (ZO-1); assay type: cell-based, human; conditions: x-z maximum intensity projection, intensity profile plot
From the text: (§2) The pipeline was prototyped using a small suite of well-characterized compounds that include brefeldin A, paclitaxel, rapamycin, wortmannin and staurosporine (FIG. 26A). Low-resolution imaging (24× magnification) was used to test a matrix of concentrations and time points for each compound of interest to establish an initial set of conditions for each perturbation. hiPSC colonies were monitored for morphologic changes using transmitted light (FIG. 26B) and an endogenously GFP-tagged structure, such as microtubules (FIG. 26C). After establishing an end point response for several compounds, high-resolution (120× magnification) imaging of multiple cell lines was performed under standardized perturbation parameters, in the presence of dyes to label the nucleus and cell membrane for reference purposes (FIG. 27). […]
(§3) For drug-induced effects on cell junction reorganization, representative maximum intensity projections of a z-stack along the x-z axis are shown in FIG. 30. From these projections, the mean pixel intensity for the GFP channel along the x-axis, from the top of the image to the bottom, was measured to generate an intensity profile plot. […] To analyze the change in desmosome number, the number of 3D objects in a z-stack were counted using the 3D Object Counter tool in Fiji. […] Data were analyzed by Student's t-test (** p<0.01).

[3] = tested on: hiPSC colonies; assay: Image-based drug perturbation of hiPSC colonies: colony and cell morphology; design: species or system human
From the text: as §1

[4] = tested on: desmosomes; assay: Image-based drug perturbation of GFP-tagged hiPSC lines: desmosomes (3D object count); assay type: cell-based, human
From the text: as §2, §3

[5] = tested on: Golgi; assay: Fluorescence quantification of 3D images: drug-induced Golgi reorganization; assay type: cell-based, human; conditions: GFP channel intensity summed over z-stack, 30-minute intervals, vs DMSO
From the text: as §1
(§4) Fluorescence quantification of the 3D images were used to analyze drug-induced Golgi reorganization, cytoskeleton reorganization, and cell junction reorganization. To quantify the relative abundance of each structure of interest (e.g. Golgi as presented above), the pixel intensities of the GFP channel (488 nm) were summed across the entire z-stack. […]

[6] = tested on: actin; assay: Image-based drug perturbation of GFP-tagged hiPSC lines: actin; assay type: cell-based, human
From the text: as §1, §4

[7] = tested on: ER; assay: Image-based drug perturbation of GFP-tagged hiPSC lines: ER; assay type: cell-based, human; conditions: hiPS cells undergoing mitosis
From the text: as §1

[8] = tested on: cell junctions; assay: Image-based drug perturbation of GFP-tagged hiPSC lines: cell junctions; design: species or system human
From the text: as §1

[9] = tested on: microtubules; assay: Image-based drug perturbation of GFP-tagged hiPSC lines: microtubules; assay type: cell-based, human
From the text: as §1, §4

[10] = 3D fluorescence quantification vs DMSO

CN[C@@H]1C[C@H]2O[C@@](C)([C@@H]1OC)n1c3ccccc3c3c4c(c5c6ccccc6n2c5c31)C(=O)NC4 [staurosporine]
myosin organization through the thickness of the cell [1]: induced reorganization of the myosin
distribution of ZO-1 along the z-axis [2]: redistribution of ZO-1 along the z-axis
effect on colony and cell morphology [3]: major effects on colony and cell morphology, inducing rearrangements in cell packing and shape
number of DSP-positive plaques ([4]; 3D Object Counter, Student's t-test p<0.01): increased in number
effect on desmosome localization ([4]; GFP-tagged hiPSC): induced re-localization of desmosomes; also recorded: desmosomes relocalized throughout the cell

(S)-nitro blebbistatin
relative myosin protein abundance and organization [1, 10]: reorganization and relative decrease
myosin organization through the thickness of the cell [1]: induced reorganization of the myosin
effect on Golgi organization [5]: induced fragmentation of the organelle
distribution of ZO-1 along the z-axis [2]: redistribution of ZO-1 along the z-axis
relative actin protein abundance and organization [6, 10]: reorganization and relative decrease

C[C@H]1CCC/C=C/[C@@H]2C[C@H](O)C[C@H]2[C@H](O)/C=C/C(=O)O1 [Brefeldin A, brefeldin A]
effect on Golgi organization [5]: induced dissociation of the golgi within 30 minutes

CC(=O)O[C@H]1C(=O)[C@@]2(C)[C@H]([C@H](OC(=O)c3ccccc3)[C@]3(O)C[C@H](OC(=O)[C@H](O)[C@@H](NC(=O)c4ccccc4)c4ccccc4)C(C)=C1C3(C)C)[C@]1(OC(C)=O)CO[C@@H]1C[C@@H]2O [paclitaxel]
effect on organization of the ER [7]: induced aberrant reorganization of the ER
effect on bulk organization of the actin bundles ([6]; GFP-tagged hiPSC): minimal effects
effect on bulk organization of cell junctions [8]: minimal effects
effect on microtubule organization ([9]; GFP-tagged hiPSC, high-resolution (120x) imaging, vs DMSO control): increased microtubule bundle thickness and altered the shape and position of the mitotic spindle; also recorded: stabilized the microtubules
microtubule relative localized fluorescence intensity ([9]; over time, vs DMSO): trend of increased relative localized fluorescence intensity over time
